According to patent US20220175761A1, “BI-LIGAND DRUG CONJUGATE AND USE THEREOF” (COHERENT BIOPHARMA (SUZHOU), LIMITED, priority 2019, published 2022):

Legend:
[1] = test system: CFPAC-1 (human pancreatic cancer cells); assay: Inhibition of cell line proliferation, CCK8; type: cell-based; conditions: CFPAC-1, 68-72 hours, CCK8
Description: Experimental operations: PANC-1 and CFPAC-1 cells were prepared in advance, counted, and plated in 96-well cell culture plates at a cell density of 4×10^4 cells/ml (100 μl/well); negative control and blank control wells were set on each plate. After adherent cell culture overnight, the diluted samples to be tested were added at 50 μl/well. The plates were placed in an incubator at 37° C., 5% CO2 and cultured for 68-72 hours. To each well, 15 μl (10% of the liquid volume in a well) of a color developing solution from CCK8 was added; and the plates were incubated at 37° C. for 45-70 minutes and each plate was read at 450 nm on a microplate reader. The data was edited using SoftMax Pro and a 4-P fitting curve was plotted.
(§1) Experimental operations: LNCaP, SK-BR-3, NCI-H226, CFPAC-1 and PANC-1 cells were prepared in advance and counted; with a culture medium (IMDM+10% FBS+1× L-Glutamine+1×P/S), the cells LNCaP, SK-BR-3 and CFPAC-1 were diluted to 4×10^4 cells/ml, NCI-H226 was diluted to 2.0×10^4 cells/ml and PANC-1 was diluted to 3.0×10^4 cells/ml; the diluted cell solution was plated in 96-well plates at 100 μl/well; and negative control and blank control wells were set on each plate. After adherent cell culture overnight, the diluted samples to be tested were added at 50 μl/well. The plates were placed in an incubator at 37° C., 5% CO2 and cultured for 68-72 hours. To each well, 15 μl (10% of the liquid volume in a well) of a color developing solution from CCK8 was added; and the plates were incubated at 37° C. for 45-70 minutes and each plate was read at 450 nm on a microplate reader. The data was edited using SoftMax Pro and a 4-P fitting curve was plotted.
(§2) Experimental Operations: LNCaP, SK-BR-3, MDA-MB-468 and CFPAC-1 cells were prepared in advance and counted; with a culture medium (IMDM+10% FBS+1× L-Glutamine+1×P/S), the cells LNCaP, SK-BR-3, MDA-MB-468 and CFPAC-1 were diluted to 4×10^4 cells/ml; the diluted cell solution was plated in 96-well plates at 100 µl/well; and negative control and blank control wells were set on each plate. After adherent cell culture overnight, the diluted samples to be tested were added at 50 μl/well. The plates were placed in an incubator at 37° C., 5% CO2 and cultured for 68-72 hours. To each well, 15 μl (10% of the liquid volume in a well) of a color developing solution from CCK8 was added; and the plates were incubated at 37° C. for 45-70 minutes and each plate was read at 450 nm on a microplate reader. The data was edited using SoftMax Pro and a 4-P fitting curve was plotted.
as §2, with “Operations: LNCaP, MDA-MB-468, CFPAC-1 and PANC-1” for “Operations: LNCaP, SK-BR-3, MDA-MB-468 and CFPAC-1”, “CFPAC-1 and PANC-1 cells were” for “MDA-MB-468 and CFPAC-1 cells were”, “cells LNCaP, MDA-MB-468 and” for “cells LNCaP, SK-BR-3, MDA-MB-468 and”, “to 4×10^4 cells/ml, and PANC-1 was diluted to 3.0×10^4 cells/ml; the” for “to 4×10^4 cells/ml; the”, “at 100 μl/well; and negative” for “at 100 µl/well; and negative”
Experimental operations: NCI-H226, CFPAC-1 and MDA-MB-468 cells were prepared in advance and counted; MDA-MB-468 and CFPAC-1 cells were plated at a density of 2×10^4 cells/ml (100 μl/well) and NCI-H226 cells were plated at a density of 1×10^4 cells/ml (100 μl/well) in 96-well plates; and negative control and blank control wells were set on each plate. After adherent cell culture overnight, the diluted samples to be tested were added at 50 μl/well. The plates were placed in an incubator at 37° C., 5% CO2 and cultured for 68-72 hours. […]

[2] = test system: NCI-H226 (human lung cancer cells); assay: Inhibition of cell line proliferation, CCK8; type: cell-based; conditions: NCI-H226, 68-72 hours, CCK8
Description: as §1
(§3) Experimental operations: NCI-H226, CFPAC-1 and MDA-MB-468 cells were prepared in advance and counted; MDA-MB-468 and CFPAC-1 cells were plated at a density of 2×10^4 cells/ml (100 μl/well) and NCI-H226 cells were plated at a density of 1×10^4 cells/ml (100 μl/well) in 96-well plates; and negative control and blank control wells were set on each plate. After adherent cell culture overnight, the diluted samples to be tested were added at 50 μl/well. The plates were placed in an incubator at 37° C., 5% CO2 and cultured for 68-72 hours. To each well, 15 μl (10% of the liquid volume in a well) of a color developing solution from CCK8 was added; and the plates were incubated at 37° C. for 45-70 minutes and each plate was read at 450 nm on a microplate reader. The data was edited using SoftMax Pro and a 4-P fitting curve was plotted.

[3] = test system: MDA-MB-468 (human breast cancer cells); assay: Inhibition of cell line proliferation, CCK8; type: cell-based; conditions: MDA-MB-468, 68-72 hours, CCK8
Description: as §2
as §2, with “Operations: LNCaP, MDA-MB-468, CFPAC-1 and PANC-1” for “Operations: LNCaP, SK-BR-3, MDA-MB-468 and CFPAC-1”, “CFPAC-1 and PANC-1 cells were” for “MDA-MB-468 and CFPAC-1 cells were”, “cells LNCaP, MDA-MB-468 and” for “cells LNCaP, SK-BR-3, MDA-MB-468 and”, “to 4×10^4 cells/ml, and PANC-1 was diluted to 3.0×10^4 cells/ml; the” for “to 4×10^4 cells/ml; the”, “at 100 μl/well; and negative” for “at 100 µl/well; and negative”
as §3

[4] = test system: CALU-3; assay: Tumor growth inhibition of CR19428 in subcutaneous xenograft model (CDX); type: in vivo, BALB/c-nude mice
Description: (§4) Experimental scheme: The tumor tissue mass were prepared and subcutaneously inoculated into the anterior right flank of BALB/c-nude mice. When the tumor volume expanded to 80-160 mm^3, a randomized grouping was performed, and a model control group and administration groups were set. The mice were administrated from the first day of grouping, wherein the administration dose was adjusted according to the latest weight measurement. The mice were administrated via tail vein injection at an administration volume of 10 μl/g and twice a week for consecutive 3 weeks. After grouping and administration, the effects of tumor growth and treatment on normal behaviors of animals, specifically including the activity of experimental animals, food intake and drinking status, weight gain or loss status, and other abnormal conditions in eyes, hair, etc., were monitored. After grouping and administration, the weight of mice was measured twice a week to calculate the rate of weight change; at the same time, the long diameter and short diameter of the tumor were measured with a vernier caliper, and the tumor volume, relative tumor proliferation rate, tumor volume inhibition rate and other indicators were calculated. The formula of tumor volume is TV=0.5 a×b^2, wherein a is the long diameter of a tumor and b is the short diameter of a tumor.

[5] = test system: SCLC-21H; assay: as above; type: in vivo, BALB/c-nude mice
Description: as §4

[6] = test system: SPC-A1; assay: as above; type: in vivo, BALB/c-nude mice; conditions: for TGI: SPC-Al
Description: as §4

[7] = test system: LNCaP human prostate cancer cells; assay: Cell binding and endocytosis by flow cytometry; type: cell-based; conditions: 8 nmol/L, 37° C., 15-90 minutes, compared with DU145 and NCI-H460
Description: (§5) Sample information: Cy5-pep-20AK and Cy5-pep-20BK Cell lines: LNCaP human prostate cancer cells, Du145 human prostate cancer cells, SKOV3 human ovarian cancer cells and NCI-H460 human lung cancer cells
(§6) (1) Cell culture: the cells were digested with trypsin, collected and counted, and then the cells were added to several culture flasks containing a complete medium; the culture flasks were placed in an incubator at 37° C., 5% CO2 for culturing the cells, and finally about 5×10^6 cells were collected into a centrifuge tube. […]
(§7) (3) Washing and loading: the working solution was removed by centrifugation at 1000 rpm for 5 minutes, and the cells were washed 3 times with PBS, and an appropriate amount of PBS was added to suspend the cells to 1×10^6 cells/ml; Beckman CytoFLEX flow cytometer was turned on in advance to complete the startup cleaning process; and the cell samples were loaded successively, and the fluorescence of 10,000 living cells was read in the APC channel; all operations were performed avoiding light exposure.
(§8) (4) Data analysis: the absolute MFI (mean fluorescence intensity) of the APC fluorescence of each cell sample and the relative MFI of the relative blank control were obtained, and a data line graph was completed according to the relative MFI.

[8] = test system: SKOV3 human ovarian cancer cells; assay: Cell binding and endocytosis by flow cytometry; type: cell-based; conditions: 8 nmol/L, 37° C., 15-90 minutes, compared with DU145 and NCI-H460
Description: as §5, §6, §7, §8

| SMILES | IC50 [1] [µM] | IC50 [2] [µM] | IC50 [3] [µM] | TGI ([4]; CALU-3, 50 mg/kg q2/w * 3) [%] | anti-tumor growth effect (in words) ([4]; CALU-3 CDX) | anti-tumor growth effect (in words) ([5]; SCLC-21H CDX) | TGI ([5]; SCLC-21H, 50 mg/kg q2/w * 3) [%] | anti-tumor growth effect (in words) ([6]; SPC-A1 CDX) | TGI ([6]; 50 mg/kg q2/w * 3) [%] | TGI ([6]; 100 mg/kg q2/w * 3) [%] | binding and endocytosis (fluorescence intensity) [7] | binding and endocytosis (fluorescence intensity) [8] |
| --- | --- | --- | --- | --- | --- | --- | --- | --- | --- | --- | --- | --- |
| CC[C@@]1(O)C(=O)OCc2c1cc1n(c2=O)Cc2c-1nc1cc(F)c(C)c3c1c2[C@@H](NC(=O)COCNC(=O)CNC(=O)[C@H](Cc1ccccc1)NC(=O)CNC(=O)CNC(=O)CCCCCN1C(=O)CC(SC[C@H](NC(=O)[C@H](CCCCN)NC(=O)[C@H](CC(=O)O)NC(=O)[C@H](CC(=O)O)NC(=O)Cc2ccc(CNC(=O)NCCCC[C@H](NC(=O)N[C@@H](CCC(=O)O)C(=O)O)C(=O)O)cc2)C(=O)N[C@@H](CCCCNC(=O)CC[C@H](NC(=O)c2ccc(NCc4cnc5[nH]c(N)nc(=O)c5n4)cc2)C(=O)O)C(N)=O)C1=O)CC3 (stereo partly drawn) [CR19428] | 0.906 | 1.62 | 1.07 | 51 | obvious anti-tumor growth effect | obvious anti-tumor growth effect | 66 | obvious anti-tumor growth effect | 75 | 91 |  |  |
| CC1(C)C(/C=C/C=C/C=C2\N(CCCCCC(=O)NCCCCC(NC(=O)[C@H](CCCCN)NC(=O)[C@H](CC(=O)O)NC(=O)[C@H](CC(=O)O)NC(=O)Cc3ccc(CNC(=O)NCCCC[C@H](NC(=O)N[C@@H](CCC(=O)O)C(=O)O)C(=O)O)cc3)C(N)=O)c3ccc(S(=O)(=O)[O-])cc3C2(C)C)=[N+](CCCS(=O)(=O)O)c2ccc(S(=O)(=O)O)cc21 (stereo partly drawn) [Cy5-pep-20AK] |  |  |  |  |  |  |  |  |  |  | high level of binding and endocytosis | moderate level of binding and endocytosis |
